From patent US20220332706A1, “CRYSTALLINE FORMS OF A JAK2 INHIBITOR” (Impact Biomedicines, Inc., priority 2019, published 2022)
In brackets after ≈: the same amount, converted by molar mass. Like-named read-outs stand apart in the source and are kept apart here.

What was measured:
Assay type in all cases: physicochemical
[1] = Relative stability (competitive ripening) study of Forms A and B; details: for Final Form Observed: seven days, suspension of ~10 mg Form A and ~10 mg Form B
Description: Saturated suspensions of Form A were prepared by stirring excess Form A in the specified solvent system. The suspension was stirred overnight at 25° C. A clarifying filtration was performed and the filtrate was added to a 2 mL vial containing ˜10 mg of Form A and ˜10 mg of Form B. The resulting suspensions were stirred at 25° C. for seven days, isolated, dried under vacuum for 45 minutes, and analyzed by FT-Raman.

[2] = Solubility assessment, visually estimated by dosing solvent aliquots into 10.0 mg API; details: thermodynamic from solid
Description: Solubility was assessed in an array of diverse solvents in order to facilitate the selection of solvent systems and corresponding dosing strategies for the subsequent crystal-form screening experiments.

[3] = Moisture sorption/desorption isotherms (DVS); details: 25° C., first sorption cycle 0 to 75% RH, desolvation with solvent exchange induced by water vapour
Description: Moisture sorption/desorption isotherms. All experiments were performed on a DVS-1 automated gravimetric vapour sorption analyser (Surface Measurement Systems Ltd., London, UK). The DVS measures the uptake and loss of vapour gravimetrically using a Cahn D200 recording ultra-microbalance with a mass resolution of ±0.1 μg. A controlled relative humidity is generated by mixing different proportions of dry and water saturated carrier gas streams (monitored by mass flow controllers). The temperature was maintained constant, ±0.1° C., by enclosing the entire system in a temperature-controlled incubator. A sample size around 10 mg was used. Prior to being exposed to any water vapour the samples were dried at 0% relative humidity (RH) to remove any surface water present and establish a dry, baseline mass. […] Two consecutive cycles were recorded. From the complete moisture sorption and desorption profile an isotherm was calculated using the DVS Advanced Analysis Suite v3.6. […]
DVS curves are carried out at 25° C. on hexafluoroisopropanol solvate (FIG. 18). After 6 hours under nitrogen a weight loss of 5% is recorded (a partial desolvation is observed with a pre-treatment at 25° C.). During the first sorption cycle, an important weight loss is recorded between 0 and 75% RH (around 30%). […]

[4] = Characterization of crystal forms: behaviour under ambient conditions

## Cc1cnc(Nc2ccc(OCCN3CCCC3)cc2)nc1Nc1cccc(S(=O)(=O)NC(C)(C)C)c1 [Form A]
[1]; 25° C., over the entire water activity range
  relative stability of hydrates: stable hydrate
[1]; Acetone:Water (83:17), water activity 0.75, 25 °C
  Final Form Observed: Form A
[1]; Ethanol, water activity 0, 25 °C
  Final Form Observed: Form A
[1]; Methanol:Water (73:27), water activity 0.5, 25 °C
  Final Form Observed: Form A
[1]; Water, water activity 1, 25 °C
  Final Form Observed: Form A
[2]; all other solvents evaluated (of 12; not DMSO, MeOH, water), organic solvent or mixture, in all other solvents evaluated, read-out: low solubility
  solubility: ≤ 5000 µg/mL
[2]; organic solvent or mixture, DCM, 40° C., read-out: Solubility at 40° C.
  solubility: < 5000 µg/mL
[2]; organic solvent or mixture, DCM, RT, read-out: Solubility at RT
  solubility: < 5000 µg/mL
[2]; organic solvent or mixture, DMSO, RT, read-out: Solubility at RT
  solubility: > 400000 µg/mL
[2]; organic solvent or mixture, EtOAc, 40° C., read-out: Solubility at 40° C.
  solubility: < 5000 µg/mL
[2]; organic solvent or mixture, EtOAc, RT, read-out: Solubility at RT
  solubility: < 5000 µg/mL
[2]; organic solvent or mixture, IPA, 40° C., read-out: Solubility at 40° C.
  solubility: < 5000 µg/mL
[2]; organic solvent or mixture, IPA, RT, read-out: Solubility at RT
  solubility: < 5000 µg/mL
[2]; organic solvent or mixture, IPA:water (9:1) v/v, 40° C., read-out: Solubility at 40° C.
  solubility: > 5000 µg/mL
[2]; organic solvent or mixture, IPA:water (9:1) v/v, RT, read-out: Solubility at RT
  solubility: < 5000 µg/mL
[2]; organic solvent or mixture, IPE, 40° C., read-out: Solubility at 40° C.
  solubility: < 5000 µg/mL
[2]; organic solvent or mixture, IPE, RT, read-out: Solubility at RT
  solubility: < 5000 µg/mL
[2]; organic solvent or mixture, MTBE, 40° C., read-out: Solubility at 40° C.
  solubility: < 5000 µg/mL
[2]; organic solvent or mixture, MTBE, RT, read-out: Solubility at RT
  solubility: < 5000 µg/mL
[2]; organic solvent or mixture, MeCN, 40° C., read-out: Solubility at 40° C.
  solubility: < 5000 µg/mL
[2]; organic solvent or mixture, MeCN, RT, read-out: Solubility at RT
  solubility: < 5000 µg/mL
[2]; organic solvent or mixture, MeOH, RT, read-out: Solubility at RT
  solubility: > 400000 µg/mL
[2]; organic solvent or mixture, THF, 40° C., read-out: Solubility at 40° C.
  solubility: < 5000 µg/mL
[2]; organic solvent or mixture, THF, RT, read-out: Solubility at RT
  solubility: < 5000 µg/mL
[2]; organic solvent or mixture, Toluene, 40° C., read-out: Solubility at 40° C.
  solubility: < 5000 µg/mL
[2]; organic solvent or mixture, Toluene, RT, read-out: Solubility at RT
  solubility: < 5000 µg/mL
[2]; Water, RT, read-out: Solubility at RT
  solubility: 100000 to 400000 µg/mL (≈ 191 to 762 mM)
[2]; in DMSO, MeOH, and water
  solubility: > 100000 µg/mL

## Cc1cnc(Nc2ccc(OCCN3CCCC3)cc2)nc1Nc1cccc(S(=O)(=O)NC(C)(C)C)c1 [Form H]
[3]
  form change during DVS: transform into Form B

## Cc1cnc(Nc2ccc(OCCN3CCCC3)cc2)nc1Nc1cccc(S(=O)(=O)NC(C)(C)C)c1 [Form I]
[4]
  physical stability of the solvate: efflorescent solvate
